In patent publication US20190106460A1, “BINDING INHIBITORS OF THE BETA. TRANSDUCIN REPEAT-CONTAINING PROTEIN” (priority 2011, published 2019):
Non-standard residues stand in square brackets, D forms with d. Residues, ends and D or L forms follow the SMILES beside them. Groups on a side chain read outwards from the residue. *: point of attachment. X3 = CC(C)CCC[C@@H](C)[C@H]1CCC2C3CC=C4C[C@@H](OC(=O)*)CC[C@]4(C)C3CC[C@@]21C; Benzenesulfonyl(4-OMe) = COc1ccc(S(=O)(=O)*)cc1; Phe(3-F) = N[C@@H](Cc1cccc(F)c1)C(=O)O; Ahx = NCCCCCC(=O)O

Tests used:
Type in all cases: cell-based
PDCD4 in MCF7 cells = assay: In-cell western assay for PDCD4 accumulation
Experimental: In-Cell Western Assay for PDCD4 Accumulation.
To measure this an in-cell western assay was used and the peptidomimetics were delivered to the cells by nucleofection.
MCF7 cells were grown in 10 cm dishes in 10 ml DMEM+10% FBS and 1% Pen/Strep at 37° C./5% CO2. On the day of nucleofection, the dish was washed with 90% confluent MCF7 cells with 5 ml PBS, then 3 ml of Trypsin/EDTA was added and incubated at 37° C./5% CO2 for approximately 5 mins until the cells detached from the plastic. 7 ml of normal growth media was added and the number of cells present was counted using a haemocytometer.
The cells were centrifuged cells at 90 g for 10 mins at RT and the supernatant was removed. 100 μl of Nucleofection Buffer V+ Supplement was added (Lonza Biologics Cat no VCA-1003) per 8×10^5 cells, and the cells were added to peptidomimetics dissolved in <3% DMSO.
The cell/peptidomimetic mix was added to cuvettes supplied for the nucleofector and the sample was nucleofected using the recommended MCF7 programme for high cell viability (i.e. E-014). 500 μl of TPA (12-O-tetradecanoylphorbol-13-acetate)-supplemented growth media (i.e. DMEM/10% FBS/1% Pen-Strep/10 nM TPA) was added to the cuvette and 100 μl of this solution was transferred to a well of a 96 well plate and incubated at 37° C./5% CO2 for 8 hours.
The celled were fixed by removing the growth media, adding 3.7% Formaldehyde in PBS and incubating at RT for 20 mins. The plate was washed three times in PBS. And the cells were permeabilised by washing 5× for 5 mins each in PBS+0.1% Triton X-100.
The cells were blocked by adding 3% BSA in PBS-Tween to the cells and incubating at RT for 1.5 hours. An anti-PDCD4 antibody (Abcam cat no: ab80590) was added at a concentration of 1:1000 in 3% BSA in PBS-T (50 ul/well) and incubated at RT for 2.5 hours. The cells were washed 5× for 5 mins each with PBS-T before the secondary antibody (LiCor Biosciences Donkey Anti-Rabbit IRDye 800CW cat no 926-32213) was added at a concentration of 1:1000, along with the DNA stain DRAQ5 at a concentration of 1:10000, in 3% BSA in PBS-T (50 ul/well) and incubated at RT for 1 hour, protected from light.
The cells were washed cells 5× for 5 mins each with PBS-T and all the liquid was removed from the wells before the plate was read on the LiCor Biosciences Odyssey at 700 nm and 800 nm. The reading was normalised in the 800 nm channel to that in the 700 nm channel. The data are shown in FIG. 12, where DMSO was used as a negative control and 20 μM MG132 was used as a positive control. The data is presented as percentage activity with DMSO=0% and […]=100% activity. Error bars represent standard deviation from 3 replicates.
The compounds shown in FIGS. 14A-14B were synthesised to improve cell permeability. […] FIG. 16 compares the round II compounds (shown in FIGS. 14A-14B) with UBP036 in this assay. […] Inhibition of βTrCP, which is responsible for the degradation of both PDCD4 and β-catenin, causes a concomitant stabilisation and accumulation of levels of these proteins which can be measured by in cell western assay.

MCF7:GFP-PDCD4^WT = assay: Fluorescence reporter assay for PDCD4 accumulation, wild type
Experimental: (§1) Fluorescence Reporter Assay for PDCD4 Accumulation
(§2) This assay uses two stable cell lines expressing PDCD4 fused to a GFP tag.
(§3) The two stable cell lines MCF7:GFP-PDCD4^WT and MCF7:GFP-PDCD4^S71A/S76Awere grown in 10 ml DMEM+10% FBS and 1% Pen/Strep supplemented with 2 mg/ml Geneticin at 37° C./5% CO2. These cell lines were nucleofected as described above except for the additional supplementation of all media with 2 mg/ml Geneticin.
(§4) Fluorescent Reporter Assay
(§5) The cells were fixed by removing the growth media and adding 3.7% Formaldehyde in PBS to the cells. The cells were then incubated at RT for 20 mins and the plates washed 3× in PBS.
(§6) DRAQ5 DNA stain was added to the cells in PBS at a concentration of 1:10000 and incubated at RT for 1 hour protecting from light. The plate was washed 3× in PBS and read on the Perkin Elmer OPERA platform using the nuclei counting algorithm F in both the 488 nm channel (GFP) and 640 nm channel (DRAQ5). DMSO was used as a negative control and 10 μM MG132 was used as a positive control. Error bars represent standard deviation from 6 replicates. The data are expressed as percentage activity with DMSO (WT)=0% and 10 μM MG132 (WT)=100% activity.
(§7) This confirms that the stabilisation resulting from the compounds is dependent on the βTrCP/PDCD4 interaction and is not due to another mechanism such as a global increase in protein production.

MCF7:GFP-PDCD4^S71A/S76A = assay: Fluorescence reporter assay for PDCD4 accumulation, mutant; details: PDCD4 mutated to eliminate PDCD4-βTrCP interaction
Experimental: as §1, §2, §3, §4, §5, §6, §7

LNCaP (prostate cancer) = assay: xCELLigence cell viability / proliferation, LNCaP
Experimental: Example 9—Cell Based Activity of Cell Permeable Compounds on the xCELLigence Platform
The effects of the compounds shown in FIGS. 14A-14B were tested on cancer cell lines MCF7 (breast cancer) and LNCaP (prostate cancer) using the xCELLigence platform (http://www.roche-applied-science.com/sis/xcelligence/ezhome.html). This method of measuring cell viability via measuring cell index is known in the art.
Different doses of the compounds were tested on MCF7 cells to see if there would be an effect on their cell viability.
The control compound was compared to its partner active compound (UBP037).
(§8) xCELLigence Method • Before starting the experiment add 50 μL of medium (RPMI 1640, 10% fetal bovine serum, 100 units/mL penicillin, 100 ug/mL streptomycin, and 2 mmol/L glutamine, all from GIBCO) to each well of 96 well E-plate (Roche) and place the plate in the xCELLigence platform to measure the background. • LNCaP/PNT-1 cells are seeded (LNCaPs 80000 cells/well; PNT1 3000 cells/well) in the plate in complete medium and equilibrated for 60 mins at RT before returning to the xCELLigence platform and incubating at 37° C./5% CO2. • 24 hrs after seeding, remove 100 μL of medium was removed from each well and cells were treated with compounds or DMSO diluted in 100 μL of OptiMEM (GIBCO). • Replace the plate in the xCELLigence platform • Cells growth can then be monitored in real-time by the cell index profile on the xCELLigence readout screen • Cell growth can be expressed as normalized cell index and doubling time/slope calculated using the RTCA software.

PNT-1 cell line = assay: xCELLigence cell growth, non-malignant PNT-1
Experimental: as §8
The susceptibility of cancer cell lines versus non-cancer cell lines following treatment with the compounds was also investigated.

## COc1ccc(S(=O)(=O)N[C@H](CC(=O)O)C(=O)N[C@@H](CCC(=O)O)C(=O)NCC(=O)N[C@@H](Cc2cccc(F)c2)C(=O)N[C@@H](Cc2c[nH]c3ccccc23)C(=O)N[C@@H](CCC(=O)O)C(=O)NCCCCCC(=O)N[C@@H](CCCCNC(=O)CCCCCNC(=O)O[C@H]2CC[C@@]3(C)C(=CCC4C3CC[C@@]3(C)C4CC[C@@H]3[C@H](C)CCCC(C)C)C2)C(N)=O)cc1 (stereo partly drawn) [UBP036, 4-(MeO)PhSO2-dEGF(3F)WE-Ahx-K(Ahx-Chol)-NH2] ({Benzenesulfonyl(4-OMe)}-[dD]EG[Phe(3-F)]WE[Ahx]K([Ahx-X3])-NH2)
PDCD4 in MCF7 cells; MCF7, treatment with cell permeable compound
  accumulation of PDCD4, in cell western: accumulation of PDCD4
PDCD4 in MCF7 cells; general statement, different delivery vehicles
  cell based activity: display cell based activity
MCF7:GFP-PDCD4^WT
  accumulation of GFP-PDCD4, fluorescent reporter assay: GFP-PDCD4 accumulation
MCF7:GFP-PDCD4^S71A/S76A
  accumulation of GFP-PDCD4 Mut, fluorescent reporter assay: no accumulation of PDCD4
LNCaP (prostate cancer)
  cell growth / proliferation, xCELLigence: inhibit the growth
PNT-1 cell line
  cell growth, xCELLigence: far less effect
